Test results from patent publication US9476050B2, “Combination therapy” (TURUN YLIOPISTO, priority 2011, dated 2016).
Entries after “also recorded” stand apart in the source; their conditions may differ. *: point of attachment. Cbz = O=C(OCc1ccccc1)*; CH2F = FC*

Experiments:
Assay type in all cases: cell-based, human
[1] = test system: T98G glioblastoma cells; assay: Apoptosis assay by sub-G0/G1 fraction estimation (apoptotic nuclear fragmentation, PI staining, FACS); settings: for Potentiation % (apoptotic nuclear fragmentation): T98G transfected with PME-1 specific dsRNA; for level of apoptosis in PME-1 depleted cells: PME-1 siRNA 48 hrs, then drug 24 hrs; for sensitization to STS mediated apoptosis: siRNA or chemical PP2A activator followed by STS 24 hrs; for reversal of PME-1 siRNA and STS mediated apoptosis: agent added to, or siRNA co-transfected with, PME-1 siRNA plus STS
Protocol: The percentage of the sub-G0/G1 fraction containing fragmented nuclei stained with Propidium iodide (P1) was taken as a measure of apoptotic cells. 3.5-4×10^4 cells were plated in 24-well plates, transfected with siRNA for 48 hrs, and then treated with indicated concentration of test compounds in fresh media. After 24 hrs of treatment, both floating and adherent cells were harvested by centrifugation. Cell pellets were resuspended in 400 μl of hypotonic PI buffer, containing 40 mM Tri-sodium citrate (Merck), 0.3% Triton X-100 (Sigma-Aldrich) and 50 μg/ml Propidium iodide (Sigma-Aldrich) in PBS, and incubated at room temperature for 10 minutes in dark. The flow cytometric analysis of PI stained nuclei was performed and the recorded data was analyzed using a FACScan flow cytometer and software (Becton Dickinson) respectively.
In experiments using pan-caspase inhibitor, cells were kept in growth media containing 30 μM Z-VAD-FMK starting from 18 hrs after transfection till the PI staining. For treatment with PP2A activators FTY720, Sodium Selenate and Xylulose-5-phosphate, cells were kept in respective drugs throughout the experiment starting from 24 hrs after transfection. PP2A inhibitor, Okadaic acid, treatment was given for 24 hrs after 24 hrs of transfection.
The T98G cells transfected with siRNA for 48 hrs were given drug treatments for 24 hrs and were subsequently lysed, and their nuclei were stained using hypotonic propidium iodide buffer. The lysates were analysed for changes in the sub-G0/G1 fraction of fragmented nuclei by flow cytometry (FACS) (FIG. 1B). Condensation and fragmentation of nucleus is a key biochemical feature of apoptosis and sub-G0/G1 analysis has been widely used for detection of apoptosis (FEBS Lett., 1986, 194(2):347-50; Cytometry, 1991, 12(4):323-329; Nature Protocols, 2006, 1:1458-1461).

[2] = test system: U87MG glioblastoma cells; assay: Colony formation assay, U87MG; settings: scrambled or PME-1 siRNA, then drug 2 days; FIG. 5D
Excerpt: (§1) Cells plated in very low density (4-6×10^3) in 6-well plates were allowed to grow for about 7 days until they form small colonies. These cells were then transfected with Scrambled or PME-1 siRNA using Lipofectamine RNAiMAX reagent (Invitrogen) according to the manufacturer's instructions. After 48 hrs, treatments were given with indicated concentration of chemical drugs for another 48 hrs. Cell colonies were washed with PBS, fixed with 3.7% formaldehyde and stained with 0.2% crystal violet solution (made in 10% ethanol) for 15 minutes at room temperature each. Excess stain was removed by repeated washings with PBS. Plates were dried and pictures were taken with Olympus SP-600UZ camera or Epson perfection V700 scanner and analysed with ImageJ.

[3] = test system: U251MG glioblastoma cells; assay: Colony formation assay, U251MG; settings: scrambled or PME-1 siRNA, then drug 2 days; FIG. 5C
Excerpt: as §1

[4] = test system: U118MG glioblastoma cells; assay: Colony formation assay, U118MG
Excerpt: as §1
(§2) The efficacy of this treatment combination was then tested by colony formation assay in T98G glioblastoma cells and another glioblastoma cell line U118MG. For this experiment, these cells were grown in 6-well plates until the formation of small colonies which were then transfected with Scrambled or PME-1 siRNA for 48 hrs followed by treatment with STS at the indicated concentrations for another 48 hrs.

[5] = test system: Caspase-3 and -7 activity; assay: Caspase-Glo 3/7 assay in T98G cells; settings: PME-1 depletion in combination with STS treatment
Protocol: Caspase-3 and -7 activity was measured by luminescence based method, which utilize a substrate containing Caspase-3 and -7 target peptide DEVD, named Caspase-Glo 3/7 Assay (Promega Corp.). Assays were performed in white polystyrene 96-well plates (Nunc, Thermo Fisher Scientific Inc.) according to manufacturer's instructions and luminescence was measured with Perkin Elmer Victor2 Plate Reader.

[6] = test system: T98G glioblastoma cells; assay: Colony formation assay, T98G
Excerpt: as §1, §2

[7] = test system: T98G glioblastoma cells; assay: Cell viability assay, CellTiter-glo (CTG); settings: PME-1 siRNA plus STS treatment
Protocol: Cell viability was determined by CellTiter-glo (CTG) assay which measures the cellular ATP levels as an indicator of metabolically active and viable cells. CTG reagent kit was purchased from Promega Corp. and assays were performed according to their recommendations. Assays were performed in white polystyrene 96-well plates (Nunc, Thermo Fisher Scientific Inc.) and luminescence was measured with Perkin Elmer Victor2 Plate Reader.

[8] = PME-1 depletion or STS treatment alone
[9] = combination of PME-1 siRNA 48 hrs and STS 48 hrs

## O=C1NC(=O)c2c1c1c3ccccc3[nH]c1c1[nH]c3ccccc3c21 [Arcyriaflavin A, 12,13-Dihydro-5H-indolo[2,3-a] pyrrolo[3,4-c] carbazole-5,7(6H)-dione]
[1]; 5 μM drug
  Potentiation % (apoptotic nuclear fragmentation): 5-10%

## C[C@]12O[C@H](C[C@]1(O)CO)n1c3ccccc3c3c4c(c5c6ccccc6n2c5c31)CNC4=O [CEP-701, (9S,10S,12R)-2,3,9,10,11,12-Hexahydro-10-hydroxy-10-(hydroxymethyl)-9-methyl-9,12-epoxy-1H-diindolo[1,2,3-fg:3′,2′,1′-kl] pyrrolo[3,4-i][1, 6]benzodiazocin-1-one]
[1]; 50 nM drug
  Potentiation % (apoptotic nuclear fragmentation): 2-5%
[1]; 5 μM drug
  Potentiation % (apoptotic nuclear fragmentation): 75-80%
[1]; T98G
  level of apoptosis in PME-1 depleted cells: levels even higher than STS itself

## Cn1cc(C2=C(c3cn(C4CCN(Cc5ccccn5)CC4)c4ccccc34)C(=O)NC2=O)c2ccccc21 [Enzastaurin, 3-(1-Methyl-1H-indol-3-yl)-4-(1-(1-(2-pyridinylmethyl)-4-piperidinyl)-1H-indol-3-yl)-1H-pyrrole-2,5-dione]
[1]; 5 μM drug
  Potentiation % (apoptotic nuclear fragmentation): 15-20%

## CCCCCCCCc1ccc(CCC(N)(CO)CO)cc1 [FTY720]
[1]; T98G
  sensitization to STS mediated apoptosis: None of these chemical PP2A activators were able to sensitize

## Cn1c2ccccc2c2c3c(c4c5ccccc5n(CCC#N)c4c21)CNC3=O [GÖ-6976, 12-(2-Cyanoethyl)-6,7,12,13-tetrahydro-13-methyl-5-oxo-5H-indolo[2,3-a]pyrrolo[3,4-c]carbazole]
[1]; 5 μM drug
  Potentiation % (apoptotic nuclear fragmentation): 15-20%

## CC1CNCCN1S(=O)(=O)c1cccc2cnccc12 (stereo not shown) [H7]
[1]; T98G
  level of apoptosis in PME-1 depleted cells: moderate levels of apoptosis

## COC(=O)[C@@]1(O)C[C@H]2O[C@]1(C)n1c3ccccc3c3c4c(c5c6ccccc6n2c5c31)C(=O)NC4 [K252a, (9S,10R,12R)-2,3,9,10,11,12-Hexahydro-10-hydroxy-9-methyl-1-oxo-9,12-epoxy-1H-diindolo[1,2,3-fg:3′,2′,1′kl] pyrrolo[3,4-i][1,6] benzodiazocine-10-carboxylic acid methyl ester]
[2]
  cell killing activity with PME-1 depletion (colony formation): enhanced the cell killing activity
[3]
  cell killing activity with PME-1 depletion (colony formation): enhanced the cell killing activity
[1]; 500 nM drug
  Potentiation % (apoptotic nuclear fragmentation): 10-15%
[1]; 5 μM drug
  Potentiation % (apoptotic nuclear fragmentation): 80-90%
[1]; T98G
  level of apoptosis in PME-1 depleted cells: levels even higher than STS itself

## O=C1NCc2c1c1c3ccccc3[nH]c1c1[nH]c3ccccc3c21 [K252c, 6,7,12,13-Tetrahydro-5H-indolo[2,3-a]pyrrolo[3,4-c] carbazol-5-one]
[1]; 5 μM drug
  Potentiation % (apoptotic nuclear fragmentation): 15-20%

## C=C1[C@@H](O)[C@@H]2O[C@]3(CC[C@H](/C=C/[C@@H](C)[C@@H]4CC(C)=C[C@@]5(O[C@H](C[C@@](C)(O)C(=O)O)CC[C@H]5O)O4)O3)CC[C@H]2O[C@@H]1[C@@H](O)C[C@H](C)[C@H]1O[C@@]2(CCCCO2)CC[C@H]1C [OA, okadaic acid]
[1]; T98G
  reversal of PME-1 siRNA and STS mediated apoptosis: sufficient to rescue cells

## CO[C@@H]1[C@H](N(C)C(=O)c2ccccc2)C[C@H]2O[C@]1(C)n1c3ccccc3c3c4c(c5c6ccccc6n2c5c31)C(=O)NC4 [PKC412, [9S-(9α,10β,11β, 13α)]-N-(2,3,10, 11,12,13-Hexahydro-10-methoxy-9-methyl-1-oxo-9,13-epoxy-1 H,9H-diindolo [1,2,3-gh:3′,2′,1′-lm]pyrrolo[3,4-j][1,7]benzodiazonin-11-yl)-N-methyl benzamide]
[2]
  cell killing activity with PME-1 depletion (colony formation): enhanced the cell killing activity
[3]
  cell killing activity with PME-1 depletion (colony formation): enhanced the cell killing activity
[1]; 500 nM drug
  Potentiation % (apoptotic nuclear fragmentation): 5-10%
[1]; 5 μM drug
  Potentiation % (apoptotic nuclear fragmentation): 75-80%
[1]; T98G
  level of apoptosis in PME-1 depleted cells: levels even higher than STS itself

## Cn1cc(C2=C(c3cn(CCCSC(=N)N)c4ccccc34)C(=O)NC2=O)c2ccccc21 [RO-31-8220]
[1]; 5 μM drug
  Potentiation % (apoptotic nuclear fragmentation): 5-10%
[1]; T98G
  level of apoptosis in PME-1 depleted cells: not active

## COC1C(CO)OC(n2c3c(Cl)cccc3c3c4c(c5c6cccc(Cl)c6[nH]c5c32)C(=O)NC4=O)C(O)C1O (stereo not drawn) [Rebeccamycin, 5h-indolo(2,3-a)pyrrolo(3,4-c)carbazole-5,7(6h)-dione,1,11-dichloro-12,13-dihy;dro-12-(4-o-methyl-beta-d-glucopyranosyl)]
[1]; 5 μM drug
  Potentiation % (apoptotic nuclear fragmentation): 5-10%

## O=C1NC(=O)c2c1c1c3ccccc3n3c1c1c2c2ccccc2n1C1CCC3O1 [SB-218078, 9,10,11,12-Tetrahydro-9,12-epoxy-1H-diindolo [1,2,3-fg:3′,2′,1′-kl] pyrrolo[3,4-i][1,6] benzodiazocine-1,3(2H)-dione]
[1]; 50 nM drug
  Potentiation % (apoptotic nuclear fragmentation): 2-5%
[1]; 5 μM drug
  Potentiation % (apoptotic nuclear fragmentation): 25-30%
[1]; T98G
  level of apoptosis in PME-1 depleted cells: moderate levels of apoptosis

## CN[C@@H]1C[C@H]2O[C@@](C)([C@@H]1OC)n1c3ccccc3c3c4c(c5c6ccccc6n2c5c31)C(=O)NC4 [Staurosporine, [9S-(9α,10β,11β, 13α)]-2,3,10,11, 12,13-Hexahydro-10-methoxy-9-methyl-11-(methylamino)-9,13-epoxy-1H,9H-diindolo[1,2,3-gh:3′,2′,1′-lm] pyrrolo[3,4-j][1,7] benzodiazonin-1-one]
[4]; [8]
  colony formation ability: moderately reduced
[4]; [9]
  colony formation ability: almost complete loss of colonies
[5]
  increase of the activity of Caspase-3/7: above 6 fold
[2]
  cell killing activity with PME-1 depletion (colony formation): enhanced the cell killing activity
[6]; [8]
  colony formation ability: moderately reduced
[6]; [9]
  colony formation ability: almost complete loss of colonies
[3]
  cell killing activity with PME-1 depletion (colony formation): enhanced the cell killing activity
[7]
  cell viability: drastic decrease
[1]; 50 nM drug
  Potentiation % (apoptotic nuclear fragmentation): 50-60%
[1]; T98G
  level of apoptosis in PME-1 depleted cells: very high level of apoptosis
[1]; T98G, listed as STS
  level of apoptosis in PME-1 depleted cells: dose dependent manner; also recorded: highly sensitive
[1]; control (Scrambled siRNA transfected) T98G cells
  concentration above which STS alone induces cell death: higher than 50 nM
[1]; untransfected T98G cells
  concentration above which STS alone gives limited amount of cell death: higher than 30 nM

## CN[C@@H]1C[C@H]2O[C@@](C)([C@@H]1OC)n1c3ccccc3c3c4c(c5c6ccccc6n2c5c31)C(=O)N[C@@H]4O [UCN-01, (9S)-2,3,10,11,12,13-Hexahydro-3α-hydroxy-10α-methoxy-9-methyl-11α-methyl amino-9β,13β-epoxy-1H,9H-diindolo [1,2,3-gh:3′,2′,1′-lm] pyrrolo[3,4-j][1,7] benzodiazonin-1-one]
[1]; 50 nM drug
  Potentiation % (apoptotic nuclear fragmentation): 5-10%
[1]; 5 μM drug
  Potentiation % (apoptotic nuclear fragmentation): 80-90%
[1]; T98G
  level of apoptosis in PME-1 depleted cells: levels even higher than STS itself

## O=C(CO)[C@@H](O)[C@H](O)COP(=O)(O)O [Xylulose-5-phosphate]
[1]; T98G
  sensitization to STS mediated apoptosis: None of these chemical PP2A activators were able to sensitize

## Cbz-Val-Ala-Asp-CH2F
[1]; T98G
  reversal of PME-1 siRNA and STS mediated apoptosis: complete reversal

## Sodium selenate
[1]; T98G
  sensitization to STS mediated apoptosis: None of these chemical PP2A activators were able to sensitize

## TRAIL
[1]; PME-1 siRNA versus scrambled siRNA, T98G
  synergistic effect of PME-1 depletion / benefit of combination with PME-1 siRNA: did not show the same trend
